Measured values published in patent publication US12590064B2, “Substituted benzamides for inhibiting perk activity” (ELI LILLY AND COMPANY, priority 2017, dated 2026).

Columns and labels:
[1] = biological target: T1, EIF2AK3 (PERK) catalytic domain (Homo sapiens, UniProt Q9NZJ5); test: In vitro inhibition of PERK enzyme activity (isolated), TR-FRET kinase assay; format: biochemical; conditions: 1.5 μM ATP, 45 min
T1 construct: EIF2AK3 (PERK) catalytic domain (amino acids 536-1116); purchased Invitrogen, Carlsbad, CA
T1 sequence (Q9NZJ5 536-1116): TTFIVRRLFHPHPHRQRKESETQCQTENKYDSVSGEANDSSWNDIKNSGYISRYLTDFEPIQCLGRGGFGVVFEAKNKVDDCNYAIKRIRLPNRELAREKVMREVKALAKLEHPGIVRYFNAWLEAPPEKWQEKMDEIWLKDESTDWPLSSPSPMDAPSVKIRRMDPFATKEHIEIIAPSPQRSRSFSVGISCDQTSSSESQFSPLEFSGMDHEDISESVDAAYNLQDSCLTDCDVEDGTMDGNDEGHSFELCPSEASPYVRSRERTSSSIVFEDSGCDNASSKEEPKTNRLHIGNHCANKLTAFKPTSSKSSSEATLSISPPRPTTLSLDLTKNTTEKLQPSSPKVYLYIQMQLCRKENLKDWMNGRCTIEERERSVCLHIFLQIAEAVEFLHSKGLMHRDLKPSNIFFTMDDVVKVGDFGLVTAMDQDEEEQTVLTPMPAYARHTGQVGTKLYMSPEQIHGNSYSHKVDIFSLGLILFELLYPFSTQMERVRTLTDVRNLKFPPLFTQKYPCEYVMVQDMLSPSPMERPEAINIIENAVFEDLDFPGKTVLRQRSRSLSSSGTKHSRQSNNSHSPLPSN
Description: (§1) Recombinant human EIF2AK2 (PKR) catalytic domain (amino acids 252-551), EIF2AK3 (PERK) catalytic domain (amino acids 536-1116), GFP-eIF2α substrate, and Terbium-labelled phospho-eIF2a antibody is obtained (Invitrogen, Carlsbad, CA). Express and purify HIS-SUMO-GCN2 catalytic domain (amino acids 584-1019) from E. coli. Perform TR-FRET kinase assays in the absence or presence of inhibitors in a reaction buffer consisting of 50 mM HEPES, pH 7.5, 10 mM MgCl2, 1.0 mM EGTA, and 0.01% Brij-35, and 100-200 nM GFP-eIF2α substrate. […] Add test compound, initiate the reaction by addition of enzyme, and incubate at room temperature for 45 minutes. Stop the reaction by addition of EDTA to a final concentration of 10 mM, add Terbium-labelled phospho-eIF2α antibody at a final concentration of 2 nM, and incubate for 90 minutes. Monitor the resulting fluorescence in an EnVison® Multilabel reader (PerkinElmer, Waltham, MA). Determine TR-FRET ratios and the resulting IC50 values using a 4-parameter nonlinear logistic equation as shown: Y=(A+((B−A)/(1+((C/x)^D)))) where, Y=% specific inhibition, A=Bottom of the curve, B=Top of the curve, C=absolute IC50 (concentration causing 50% inhibition), and D=hill slope.

[2] = biological target: T2, PERK in GripTite 293 cells expressing GFP-eIF2α (Homo sapiens, UniProt Q9NZJ5); test: In vitro inhibition of PERK enzyme activity (whole cell), tunicamycin-induced phospho-eIF2α TR-FRET; format: cell-based; conditions: 1 h pre-treatment, Tunicamycin 1 μM 2 h
T2 construct: Add Tunicamycin (1 μM) to induce PERK activity; endogenous in cells; host or cells: GripTite 293 cells expressing GFP-eIF2α
T2 sequence (Q9NZJ5 30-1116): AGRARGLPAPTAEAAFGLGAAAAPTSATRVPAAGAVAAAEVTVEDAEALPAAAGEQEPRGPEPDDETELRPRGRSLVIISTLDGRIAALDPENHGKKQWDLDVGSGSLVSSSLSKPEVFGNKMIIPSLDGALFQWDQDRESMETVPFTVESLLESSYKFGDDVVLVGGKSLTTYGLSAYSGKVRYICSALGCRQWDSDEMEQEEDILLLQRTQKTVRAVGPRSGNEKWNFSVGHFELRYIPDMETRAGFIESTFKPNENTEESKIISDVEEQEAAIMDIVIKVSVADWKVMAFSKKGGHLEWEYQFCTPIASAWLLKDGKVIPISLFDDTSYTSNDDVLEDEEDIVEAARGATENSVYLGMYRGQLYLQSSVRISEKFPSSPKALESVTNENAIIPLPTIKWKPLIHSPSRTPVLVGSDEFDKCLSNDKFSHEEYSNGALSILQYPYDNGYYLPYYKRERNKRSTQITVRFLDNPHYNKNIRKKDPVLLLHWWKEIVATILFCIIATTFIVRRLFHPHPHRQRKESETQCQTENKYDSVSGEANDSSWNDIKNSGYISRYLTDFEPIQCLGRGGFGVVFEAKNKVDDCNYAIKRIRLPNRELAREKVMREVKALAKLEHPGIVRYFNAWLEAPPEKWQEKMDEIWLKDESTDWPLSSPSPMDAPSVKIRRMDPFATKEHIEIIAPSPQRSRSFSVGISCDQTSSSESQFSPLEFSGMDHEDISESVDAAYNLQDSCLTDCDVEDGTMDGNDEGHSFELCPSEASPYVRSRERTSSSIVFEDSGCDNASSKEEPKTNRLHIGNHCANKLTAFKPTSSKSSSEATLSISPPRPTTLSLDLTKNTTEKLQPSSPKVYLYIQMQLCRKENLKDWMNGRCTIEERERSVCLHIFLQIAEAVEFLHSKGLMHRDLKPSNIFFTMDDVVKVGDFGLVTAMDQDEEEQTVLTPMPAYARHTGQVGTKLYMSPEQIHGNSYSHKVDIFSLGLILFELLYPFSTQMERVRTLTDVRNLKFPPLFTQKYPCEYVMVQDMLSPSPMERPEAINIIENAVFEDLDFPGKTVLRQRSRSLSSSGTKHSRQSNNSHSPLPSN
Description: Seed GripTite™ 293 cells (Invitrogen, Carlsbad, CA) expressing GFP-eIF2α at 10,000 cells per well in 384-well plates and allow to attach overnight. Pre-treat cells with test compounds for 1 hour. Add Tunicamycin (1 μM) to induce PERK activity and incubate the plates at 37° C. for 2 hours. Remove the culture media and lyse the cells in buffer consisting of 20 mM Tris-HCl, pH 7.5, 150 mM NaCl, 5 mM EDTA, 1% NP-40, 5 mM NaF, Protease inhibitors (Sigma, St. Louis, MO), Phosphatase inhibitors (Sigma, St. Louis, MO), and 2 nM Terbium-labelled anti-phospho-eIF2 antibody (Invitrogen, Carlsbad, CA). Incubate the cell lysates for 2 hours in the dark at room temperature and monitor fluorescence in an EnVison® Multilabel reader (PerkinElmer, Waltham, MA). Determine TR-FRET ratios and the resulting IC50 values from the fitted inhibition curves using un-induced (100% inhibition) and induced (0% inhibition) wells as controls.

[3] = test system: BxPC-3 cells; test: In vivo inhibition of pancreatic cancer (mouse xenograft model); design: species or system female athymic nude mice
Description: Implant female athymic nude mice (Harlan Laboratories) subcutaneously with 5×10^6 BxPC-3 cells containing matrigel on the right flank and monitor tumor growth with calipers. Initiate compound dosing when tumors reach ˜250 mm^3 and dose mice twice per day by oral gavage (8 animals per group) for 28 days. Formulate compounds in 10% Acacia containing 0.05% anti-foam or 20% Captisol in 25 mM NaPO4 buffer pH […] the compounds of Examples 5 and 9, respectively. Treat control animals with Acacia vehicle alone. Estimate tumor volumes using the formula l×w^2×(π/6), where l is the larger measured diameter and w is the smaller perpendicular diameter. Calculate percent delta T/C using the formula 100×[(T−T0)/(C−C0)] and percent regression using the formula 100×[(T−T0)/T0], where T and C are mean tumor volumes in the treated and control groups, respectively. T0 and C0 are the corresponding baseline mean tumor volumes. Convert percent delta T/C to percent delta tumor growth inhibition (TGI) using the equation, 100−percent delta T/C. For statistical analysis, transform tumor volume data to log10 scale to equalize variance across time and treatment groups. Analyze the log10 volume data with a two-way repeated measures analysis of variance (Spatial Power correlation model) by time and treatment using the MIXED procedures in the SAS software package (Version 9.3). Compare treated groups to the control group at each time point.

[4] = biological target: T3, EIF2AK2 (PKR) catalytic domain (Homo sapiens, UniProt P19525); test: TR-FRET kinase assay, PKR; format: biochemical; conditions: 2.5 μM ATP, 45 min; read-out: Enzyme IC50 PKR
T3 construct: Recombinant human EIF2AK2 (PKR) catalytic domain (amino acids 252-551); purchased Invitrogen, Carlsbad, CA
T3 sequence (P19525 252-551): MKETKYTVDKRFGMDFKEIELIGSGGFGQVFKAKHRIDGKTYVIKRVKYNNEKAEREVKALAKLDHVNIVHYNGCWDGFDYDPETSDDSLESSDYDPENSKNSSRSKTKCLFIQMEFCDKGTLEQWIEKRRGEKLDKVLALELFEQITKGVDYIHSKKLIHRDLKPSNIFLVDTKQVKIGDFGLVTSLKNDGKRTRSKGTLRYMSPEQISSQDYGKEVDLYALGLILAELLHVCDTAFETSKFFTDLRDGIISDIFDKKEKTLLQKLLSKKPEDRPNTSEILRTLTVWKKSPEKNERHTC
Description: as §1

[5] = 30 mg/kg PO BID group, day 21 post-implant (before start of treatment)
[6] = 30 mg/kg PO BID group, day 24 post-implant (before start of treatment)
[7] = 30 mg/kg PO BID group, day 32 post-implant (before start of treatment)
[8] = 30 mg/kg PO BID group, day 35 post-implant (before start of treatment)
[9] = 30 mg/kg PO BID group, day 39 post-implant (before start of treatment)
[10] = 30 mg/kg PO BID group, day 47 post-implant (before start of treatment)
[11] = 30 mg/kg PO BID group, day 52 post-implant (day of randomization and start of treatment)
[12] = 30 mg/kg PO BID, day 60 post-implant
[13] = 30 mg/kg PO BID, day 67 post-implant
[14] = 30 mg/kg PO BID, day 72 post-implant
[15] = 30 mg/kg PO BID, day 74 post-implant
[16] = 30 mg/kg PO BID, day 76 post-implant
[17] = 30 mg/kg PO BID, day 79 post-implant

| Compound | IC50 [1] [nM] | Mean tumor volume [3, 5] [mm^3] | Mean tumor volume [3, 6] [mm^3] | Mean tumor volume [3, 7] [mm^3] | Mean tumor volume [3, 8] [mm^3] | Mean tumor volume [3, 9] [mm^3] | Mean tumor volume [3, 10] [mm^3] | Mean tumor volume [3, 11] [mm^3] | Mean tumor volume [3, 12] [mm^3] | T/C [3, 12] [%] | TGI (Tumor Growth Inhibition) [3, 12] [%] | Mean tumor volume [3, 13] [mm^3] | T/C [3, 13] [%] | TGI (Tumor Growth Inhibition) [3, 13] [%] | Mean tumor volume [3, 14] [mm^3] | T/C [3, 14] [%] | TGI (Tumor Growth Inhibition) [3, 14] [%] | Mean tumor volume [3, 15] [mm^3] | T/C [3, 15] [%] | TGI (Tumor Growth Inhibition) [3, 15] [%] | also measured |
| --- | --- | --- | --- | --- | --- | --- | --- | --- | --- | --- | --- | --- | --- | --- | --- | --- | --- | --- | --- | --- | --- |
| Cc1cc(NC(=O)[C@H](O)c2cccc(F)c2)ccc1-c1cn(C)c2ncnc(N)c12 [Example 9, (2R)—N-[4-(4-amino-7-methyl-pyrrolo[2,3-d]pyrimidin-5-yl)-3-methyl-phenyl]-2-(3-fluorophenyl)-2-hydroxy-acetamide] | 2.4 ± 1 | 111.9 | 134.3 | 153.7 | 162.6 | 167.1 | 196.4 | 244.2 | 284.8 | 40.8 | 59.2 | 317.2 | 27.4 | 72.6 | 380.5 | 37.3 | 62.7 | 418.3 | 36.0 | 64.0 | IC50 [2]: 28 ± 11 nM; Mean tumor volume [3, 16]: 480.4 mm^3; T/C [3, 16]: 45.1%; TGI (Tumor Growth Inhibition) [3, 16]: 54.9%; Mean tumor volume [3, 17]: 541.6 mm^3; T/C [3, 17]: 40.5%; TGI (Tumor Growth Inhibition) [3, 17]: 59.5% |
| CNC(=O)c1nc(-c2ccc(NC(=O)[C@H](O)c3cc(F)cc(F)c3)cc2C)cnc1N [Example 5, 3-amino-6-[4-[[(2R)-2-(3,5-difluorophenyl)-2-hydroxy-acetyl]amino]-2-methyl-phenyl]-N-methyl-pyrazine-2-carboxamide] | – | 123.9 | 132.8 | 143.4 | 174.6 | 183.8 | 213.7 | 252.0 | 311.8 | 71.5 | 28.5 | 387.8 | 55.8 | 44.2 | 435.0 | 52.7 | 47.3 | 487.5 | 50.7 | 49.3 | IC50 [4]: > 20000 nM; Mean tumor volume [3, 16]: 528.8 mm^3; T/C [3, 16]: 54.5%; TGI (Tumor Growth Inhibition) [3, 16]: 45.5%; Mean tumor volume [3, 17]: 593.2 mm^3; T/C [3, 17]: 47.7%; TGI (Tumor Growth Inhibition) [3, 17]: 52.3% |
| Cc1cc(NC(=O)[C@H](O)c2cc(F)cc(F)c2)ccc1-c1cnc(N)c(C(=O)NC(C)C)c1 [Example 1, 2-amino-5-[4-[[(2R)-2-(3,5-difluorophenyl)-2-hydroxy-acetyl]amino]-2-methyl-phenyl]-N-isopropyl-pyridine-3-carboxamide] | 2.2 ± 1.2 | – | – | – | – | – | – | – | – | – | – | – | – | – | – | – | – | – | – | – | IC50 [4]: > 20000 nM |
